Earlier results in article PMC7835950 (Frontiers in Chemistry, 2021).

What was measured:
[1] = test system: other enzymes transforming organic acids or structurally related compounds; parameters: method as in Artiukhov et al., 2020; details: ref Artiukhov et al., 2020; cited from earlier work
recombinant OGDH complex = details: cited from earlier work
recombinant human OADH = test system: recombinant human OADH; parameters: method as in Nemeria et al., 2017, 2018; details: ref Nemeria et al., 2017, 2018, cited from earlier work

SMILES | interaction with other enzymes [1] | Km (recombinant OGDH complex; OA as alternative substrate, ref Nemeria et al., 2017) | kcat OA of recombinant OGDH complex (recombinant OGDH complex; ref Nemeria et al., 2017, 2018) | kcat OA of recombinant OADH complex (recombinant human OADH) | Km (recombinant human OADH; read-out: Km OA of recombinant human OADH)
O=C(O)CCCCC(=O)P(=O)(O)O [AP, adipoyl phosphonate] | no significant interaction |  |  |  | 
O=C(O)CCCC(=O)C(=O)O [OA, 2-oxoadipate] |  | 520 µM | 2.7 s⁻¹ | 6.0 s⁻¹ | 15 µM
O=C(O)CCC(=O)P(=O)(O)O [SP, succinyl phosphonate] | no significant interaction |  |  |  | 
